Results: ChEMBL document CHEMBL3797190, “Development of 3,5-Dinitrobenzylsulfanyl-1,3,4-oxadiazoles and Thiadiazoles as Selective Antitubercular Agents Active Against Replicating and Nonreplicating Mycobacterium tuberculosis” (J Med Chem, 2016)
Converted amounts (≈) assume the structure as drawn.

Columns and labels:
[1] = system: Pseudomonas aeruginosa; assay: Antibacterial activity against Pseudomonas aeruginosa ATCC 9027 after 24 to 48 hrs by broth microdilution method; assay type: functional
[2] = system: Mycobacterium avium; assay: Antimycobacterial activity against Mycobacterium avium CNCTC My 330/88 after 21 days by microdilution method; assay type: functional; conditions: CNCTC My 330/88, 504 h
[3] = system: Mycobacterium kansasii; assay: Antimycobacterial activity against Mycobacterium kansasii CNCTC My 235/80 after 7 days by microdilution method; assay type: functional; conditions: CNCTC My 235/80, 168 h
[4] = system: Trichophyton mentagrophytes; assay: Antifungal activity against Trichophyton mentagrophytes 445 after 72 to 120 hrs by broth microdilution method; assay type: functional
[5] = Cytotoxicity against human HeLa cells assessed as cell viability at 20 uM after 24 hrs by MTS assay; assay type: cell-based; conditions: read-out: Activity
[6] = system: Mycobacterium avium; assay: Antimycobacterial activity against Mycobacterium avium CNCTC My 330/88 after 14 days by microdilution method; assay type: functional; conditions: CNCTC My 330/88, 336 h
[7] = system: Enterococcus faecalis; assay: Antibacterial activity against Enterococcus faecalis J 14365/08 after 24 to 48 hrs by broth microdilution method; assay type: functional
[8] = Cytotoxicity against human HuH7 cells assessed as cell viability after 48 hrs by MTS assay; assay type: cell-based; conditions: Huh-7, 48 h
[9] = Cytotoxicity against MDCK2-MDR1 cells assessed as cell viability after 48 hrs by MTS assay; assay type: ADME, cell-based; conditions: Canis lupus familiaris, MDCK-II
[10] = system: Mycobacterium kansasii; assay: Antimycobacterial activity against Mycobacterium kansasii CNCTC My 235/80 after 14 days by microdilution method; assay type: functional; conditions: CNCTC My 235/80, 336 h
[11] = system: Aspergillus fumigatus; assay: Antifungal activity against Aspergillus fumigatus 231 after 24 to 48 hrs by broth microdilution method; assay type: functional
[12] = system: Mycobacterium tuberculosis; assay: Antimycobacterial activity against Mycobacterium tuberculosis CNCTC My 331/88 after 21 days by microdilution method; assay type: functional; conditions: CNCTC My 331/88, 504 h
[13] = system: Lichtheimia corymbifera; assay: Antifungal activity against Absidia corymbifera 272 after 24 to 48 hrs by broth microdilution method; assay type: functional
[14] = system: Staphylococcus epidermidis; assay: Antibacterial activity against Staphylococcus epidermidis H 6966/08 after 24 to 48 hrs by broth microdilution method; assay type: functional
[15] = Cytotoxicity against human HeLa cells assessed as cell viability at 20 uM after 48 hrs by MTS assay; assay type: cell-based; conditions: read-out: Activity
[16] = system: Candida albicans; assay: Antifungal activity against Candida albicans ATCC 44859 after 24 to 48 hrs by broth microdilution method; assay type: functional
[17] = system: Klebsiella pneumoniae; assay: Antibacterial activity against ESBL producing Klebsiella pneumoniae J 14368/08 after 24 to 48 hrs by broth microdilution method; assay type: functional
[18] = Cytotoxicity against human HuH7 cells assessed as cell viability after 24 hrs by MTS assay; assay type: cell-based; conditions: Huh-7, 24 h
[19] = system: HeLa; assay: Cytotoxicity against human HeLa cells assessed as cell viability after 48 hrs by MTS assay; assay type: cell-based
[20] = Cytotoxicity against MDCK2-MDR1 cells assessed as cell viability at 20 uM after 48 hrs by MTS assay; assay type: ADME, cell-based, Canis lupus familiaris, MDCK-II; conditions: dog, read-out: Activity
[21] = system: Candida tropicalis; assay: Antifungal activity against Candida tropicalis 156 after 24 to 48 hrs by broth microdilution method; assay type: functional
[22] = system: Escherichia coli; assay: Antibacterial activity against Escherichia coli ATCC 8739 after 24 to 48 hrs by broth microdilution method; assay type: functional
[23] = Cytotoxicity against human HuH7 cells assessed as cell viability at 20 uM after 48 hrs by MTS assay; assay type: cell-based, Huh-7; conditions: read-out: Activity
[24] = system: Trichosporon asahii; assay: Antifungal activity against Trichosporon asahii 1188 after 24 to 48 hrs by broth microdilution method; assay type: functional
[25] = Cytotoxicity against MDCK2-MDR1 cells assessed as cell viability after 24 hrs by MTS assay; assay type: ADME, cell-based; conditions: Canis lupus familiaris, MDCK-II
[26] = Cytotoxicity against MDCK2-MDR1 cells assessed as cell viability at 20 uM after 24 hrs by MTS assay; assay type: ADME, cell-based, Canis lupus familiaris, MDCK-II; conditions: dog, read-out: Activity
[27] = system: Mycobacterium kansasii; assay: Antimycobacterial activity against Mycobacterium kansasii CNCTC My 6509/96 after 14 days by microdilution method; assay type: functional; conditions: CNCTC My 6509/96, 336 h
[28] = system: Mycobacterium kansasii; assay: Antimycobacterial activity against Mycobacterium kansasii CNCTC My 6509/96 after 21 days by microdilution method; assay type: functional; conditions: CNCTC My 6509/96, 504 h
[29] = system: Mycobacterium kansasii; assay: Antimycobacterial activity against Mycobacterium kansasii CNCTC My 235/80 after 21 days by microdilution method; assay type: functional; conditions: CNCTC My 235/80, 504 h
[30] = system: Pichia kudriavzevii; assay: Antifungal activity against Candida krusei E28 after 24 to 48 hrs by broth microdilution method; assay type: functional
[31] = system: Klebsiella pneumoniae; assay: Antibacterial activity against Klebsiella pneumoniae D 11750/08 after 24 to 48 hrs by broth microdilution method; assay type: functional
[32] = Cytotoxicity against human HuH7 cells assessed as cell viability at 20 uM after 24 hrs by MTS assay; assay type: cell-based, Huh-7; conditions: read-out: Activity
[33] = system: Staphylococcus aureus; assay: Antibacterial activity against methicillin-resistant Staphylococcus aureus H 5996/08 after 24 to 48 hrs by broth microdilution method; assay type: functional
[34] = system: Staphylococcus aureus; assay: Antibacterial activity against Staphylococcus aureus ATCC 6538 after 24 to 48 hrs by broth microdilution method; assay type: functional
[35] = system: Nakaseomyces glabratus; assay: Antifungal activity against Candida glabrata 20/I after 24 to 48 hrs by broth microdilution method; assay type: functional
[36] = system: Mycobacterium tuberculosis; assay: Antimycobacterial activity against Mycobacterium tuberculosis CNCTC My 331/88 after 14 days by microdilution method; assay type: functional; conditions: CNCTC My 331/88, 336 h
[37] = system: Mycobacterium kansasii; assay: Antimycobacterial activity against Mycobacterium kansasii CNCTC My 6509/96 after 7 days by microdilution method; assay type: functional; conditions: CNCTC My 6509/96, 168 h
[38] = system: HeLa; assay: Cytotoxicity against human HeLa cells assessed as cell viability after 24 hrs by MTS assay; assay type: cell-based
[39] = system: Salmonella typhimurium; assay: Mutagenic activity in Salmonella typhimurium TA98 assessed as reverse mutation at 30 uM by Ames test; assay type: toxicity, organism-based; conditions: salmonella enterica subsp. enterica serovar typhimurium
[40] = system: Salmonella typhimurium; assay: Mutagenic activity in Salmonella typhimurium TA100 assessed as reverse mutation at 30 uM by Ames test; assay type: toxicity, organism-based; conditions: salmonella enterica subsp. enterica serovar typhimurium

SMILES	MIC95 [1]	MIC50 [4]	viability at 24 h, 20 µM [5]	MIC95 [7]	IC50 [8]	MIC50 [11]	MIC50 [13]	MIC95 [14]	viability at 48 h, 20 µM [15]	MIC80 [16]	MIC95 [17]	IC50 [18]	viability at 48 h, 20 µM [20]	MIC80 [21]	MIC95 [22]	viability at 48 h, 20 µM [23]	MIC80 [24]	IC50 [25]	viability at 24 h, 20 µM [26]	MIC99 [28]	also measured
COc1ccc(-c2nnc(SCc3ccc([N+](=O)[O-])cc3[N+](=O)[O-])o2)cc1	> 125 µM	> 125 µM	89.9%	> 125 µM	> 20 µM	> 125 µM	> 125 µM	> 125 µM	106%	> 125 µM	> 125 µM	> 20 µM	78.5%	> 125 µM	> 125 µM	77%	> 125 µM	> 20 µM	87.9%	16 µM (≈ 6.21 µg/mL)	MIC99 [2]: 4 µM (≈ 1.55 µg/mL); MIC99 [3]: 2 µM (≈ 0.777 µg/mL); MIC99 [6]: 4 µM (≈ 1.55 µg/mL); IC50 [9]: > 20 µM; MIC99 [10]: 8 µM (≈ 3.11 µg/mL); MIC99 [12]: 1 µM (≈ 0.388 µg/mL); IC50 [19]: > 20 µM; MIC99 [27]: 8 µM (≈ 3.11 µg/mL); MIC99 [29]: 16 µM (≈ 6.21 µg/mL); MIC80 [30]: > 125 µM; MIC95 [31]: > 125 µM; viability at 24 h, 20 µM [32]: 85.1%; MIC95 [33]: > 125 µM; MIC95 [34]: > 125 µM; MIC80 [35]: > 125 µM; MIC99 [36]: 0.5 µM (≈ 0.194 µg/mL); MIC99 [37]: 2 µM (≈ 0.777 µg/mL); IC50 [38]: > 20 µM
O=[N+]([O-])c1cc(CSc2nnc(-c3ccccc3)o2)cc([N+](=O)[O-])c1	> 125 µM	> 125 µM	88.3%	> 125 µM	> 20 µM	> 125 µM	> 125 µM	> 125 µM	33.2%	> 125 µM	> 125 µM	> 20 µM	42.4%	> 125 µM	> 125 µM	73.8%	> 125 µM	> 20 µM	72.6%	2 µM (≈ 0.717 µg/mL)	Activity [39]: Toxic; MIC80 [30]: > 125 µM; MIC95 [31]: > 125 µM; viability at 24 h, 20 µM [32]: 99.3%; MIC95 [33]: > 125 µM; MIC95 [34]: > 125 µM; MIC80 [35]: > 125 µM; Activity [40]: Non-toxic; IC50 [38]: > 20 µM
